Results as given in ChEMBL document CHEMBL1137741, “QSAR models for 2-amino-6-arylsulfonylbenzonitriles and congeners HIV-1 reverse transcriptase inhibitors based on linear and nonlinear regression methods” (Eur J Med Chem, 2009).

Tested on: Human immunodeficiency virus 1
Assay: Antiviral activity against HIV1
Type: functional, organism-based
Conditions: Human immunodeficiency virus 1, read-out: pIC50 (converted)

IC50 [µM] | SMILES
0.59 | N#Cc1c(N)cccc1S(=O)(=O)c1cccc(Cl)c1
0.03 | Cc1cc(Cl)cc(S(=O)(=O)c2cccc(N)c2C#N)c1
9.84 | N#Cc1c(N)cccc1[S+]([O-])c1cc(Cl)ccc1Cl (stereo not drawn)
80 | N#Cc1ccc(S(=O)(=O)c2cccc(N)c2C#N)cc1
4.29 | COc1ccccc1Sc1cccc(N)c1C#N
40 | N#Cc1c(N)cccc1[S+]([O-])c1cccc(C(F)(F)F)c1 (stereo not drawn)
2 | COc1cc(C)cc(Sc2cccc(N)c2C#N)c1
92.9 | Cc1ccccc1[S+]([O-])c1cccc(N)c1C#N (stereo not drawn)
4.8 | COc1ccccc1[S+]([O-])c1cccc(N)c1C#N (stereo not drawn)
14.2 | N#Cc1cccc([S+]([O-])c2cccc(N)c2C#N)c1 (stereo not drawn)
5 | N#Cc1c(N)cccc1S(=O)(=O)c1ccccc1Br
1.73 | N#Cc1cccc(Sc2cccc(N)c2C#N)c1
12.8 | N#Cc1c(N)cccc1Sc1cccc(C(F)(F)F)c1
0.539 | N#Cc1c(N)cccc1S(=O)(=O)c1cccc(Br)c1
3.9 | N#Cc1ccccc1[S+]([O-])c1cccc(N)c1C#N (stereo not drawn)
0.429 | Cc1cc(C)cc(Sc2cccc(N)c2C#N)c1
6.09 | Cc1cccc(Sc2cccc(N)c2C#N)c1
5.4 | N#Cc1ccccc1S(=O)(=O)c1cccc(N)c1C#N
0.01 | Cc1cc(C)cc(S(=O)(=O)c2cccc(N)c2C#N)c1
16 | Cc1ccccc1Sc1cccc(N)c1C#N
2.4 | N#Cc1cccc(S(=O)(=O)c2cccc(N)c2C#N)c1

IC50 [µM] | SMILES
39.2 | N#Cc1c(N)cccc1[S+]([O-])c1ccccc1Br (stereo not drawn)
4.1 | N#Cc1c(N)cccc1Sc1ccccc1Cl
0.06 | CCOc1cc(C)cc(S(=O)(=O)c2cccc(N)c2C#N)c1
49 | Cc1ccc([S+]([O-])c2cccc(N)c2C#N)cc1 (stereo not drawn)
0.3 | N#Cc1c(N)cccc1S(=O)(=O)c1cc(Cl)ccc1Cl
4.1 | N#Cc1c(N)cccc1S(=O)(=O)c1ccccc1Cl
3.5 | N#Cc1c(N)cccc1S(=O)(=O)c1cccc(C(F)(F)F)c1
3 | N#Cc1c(N)cccc1S(=O)(=O)c1ccc(Cl)cc1
9.79 | N#Cc1c(N)cccc1Sc1cccc(F)c1
6 | COc1cccc(Sc2cccc(N)c2C#N)c1
14.6 | N#Cc1c(N)cccc1Sc1ccccc1
31.5 | N#Cc1c(N)cccc1Sc1cccc(N)c1
3 | N#Cc1c(N)cccc1S(=O)(=O)c1ccccc1F
29.2 | Cc1cccc([S+]([O-])c2cccc(N)c2C#N)c1 (stereo not drawn)
9.51 | Cc1ccc(S(=O)(=O)c2cccc(N)c2C#N)cc1
0.34 | Cc1cc(C)cc([S+]([O-])c2cccc(N)c2C#N)c1 (stereo not drawn)
2.3 | Cc1ccccc1S(=O)(=O)c1cccc(N)c1C#N
0.4 | Cc1cccc(S(=O)(=O)c2cccc(N)c2C#N)c1
30 | N#Cc1c(N)cccc1Sc1ccccc1Br
5.11 | COc1cc(Sc2cccc(N)c2C#N)cc(C(F)(F)F)c1
16 | COc1cccc([S+]([O-])c2cccc(N)c2C#N)c1 (stereo not drawn)

IC50 [µM] | SMILES
25 | COc1ccc(S(=O)(=O)c2cccc(N)c2C#N)cc1
0.09 | COc1cc(C(F)(F)F)cc(S(=O)(=O)c2cccc(N)c2C#N)c1
0.05 | COc1cc(C)cc(S(=O)(=O)c2cccc(N)c2C#N)c1
0.899 | COc1cccc(S(=O)(=O)c2cccc(N)c2C#N)c1
2 | N#Cc1c(N)cccc1S(=O)(=O)c1ccccc1
0.6 | COc1ccccc1S(=O)(=O)c1cccc(N)c1C#N
2.07 | COc1cc([S+]([O-])c2cccc(N)c2C#N)cc(C(F)(F)F)c1 (stereo not drawn)
7.4 | N#Cc1c(N)cccc1Sc1cccc(Cl)c1
0.06 | CCCOc1cc(C)cc(S(=O)(=O)c2cccc(N)c2C#N)c1
0.32 | Cc1cc(Cl)cc([S+]([O-])c2cccc(N)c2C#N)c1 (stereo not drawn)
0.07 | N#Cc1c(N)cccc1S(=O)(=O)c1cc(Cl)cc(Cl)c1
0.6 | CCCCOc1cc(C)cc(S(=O)(=O)c2cccc(N)c2C#N)c1
0.08 | N#Cc1c(N)cccc1[S+]([O-])c1cccc(Br)c1 (stereo not drawn)
0.02 | Cc1cc(Br)cc(S(=O)(=O)c2cccc(N)c2C#N)c1
20.2 | N#Cc1c(N)cccc1[S+]([O-])c1ccc(Br)cc1 (stereo not drawn)
1.76 | Cc1cc(Cl)cc(Sc2cccc(N)c2C#N)c1
5.11 | N#Cc1c(N)cccc1Sc1cccc(Br)c1
43.8 | N#Cc1ccc(Sc2cccc(N)c2C#N)cc1
0.429 | Cc1cc(O)cc(S(=O)(=O)c2cccc(N)c2C#N)c1
20 | N#Cc1c(N)cccc1S(=O)(=O)c1ccc(Br)cc1
3 | N#Cc1c(N)cccc1S(=O)(=O)c1cccc(F)c1
